Test results from PMC8623398, “Investigation of the Mechanisms of Cytotoxic Activity of 1,3-Disubstituted Thiourea Derivatives” (Pharmaceuticals, 2021).

Assays:
PC3 cells = experiment: MTT assay, PC3; type: cell-based; conditions: Homo sapiens, PC-3, 72 h, 50% growth inhibition
Experimental: (§1) As a first step in assessing their cytotoxic properties, all thioureas of the series were assayed against four human carcinoma cell lines, such as SW480 (primary colon cancer), SW620 (metastatic colon cancer), PC3 (metastatic prostate cancer), and K-562 (chronic myelogenous leukemia), as well as against the normal cell line HaCaT (immortalized human keratinocytes). Table 1 lists the compound concentrations that produced 50% of growth inhibition (IC50, μM), generated by the MTT method, in comparison with two commonly used chemotherapeutic agents, doxorubicin and cisplatin.
(§2) The human primary (SW480), metastatic (SW620) colon cancer, metastatic prostate cancer (PC3), chronic myelogenous leukemia (K-562), and human immortal keratinocyte (HaCaT) cell lines were purchased from the American Type Culture Collection (ATCC, Rockville, MD, USA). The cells were cultured in medium according to protocols (MEM for SW480 and SW620, RPMI 1640 for PC3 and K-562, and DMEM for HaCaT cells), supplemented with 10% FBS, penicillin (100 U/mL) and streptomycin (100 μg/mL), and cultured in a 37 °C/5% CO2 humidified incubator. The cells were cultured until appropriate confluence was achieved (80–90%). Next, they were harvested by treatment with 0.25% trypsin (Gibco Life Technologies, Waltham, MA, USA) excluding the non-adherent K-562 cell line and used for studies.
(§3) Cells without the studied compounds in medium were used as a control.
(§4) The cell viability was assessed by determination of MTT salt [3-(4,5-dimethylthiazol-2-yl)-2,5-diphenyltetrazoliumbromide] conversion by mitochondrial dehydrogenase. The MTT assay was performed as previously described. Alternatively, non-adherent leukemic cells were centrifuged in a microplate centrifuge (400× g, 5 min) during the collection stages. Experiments were repeated three times. Cell viability was presented as a percent of MTT reduction in the treated cells versus the control cells. The number of viable cells cultured without the studied compounds was assumed as 100%. A decreased relative MTT level indicated decreased cell viability. Thiourea compounds with the highest cytotoxic potential assessed by MTT determination (with the lowest IC50) were chosen for subsequent assessments of cytotoxicity mechanisms.

K-562 cells = experiment: MTT assay, K562; type: cell-based, human; conditions: 50% growth inhibition
Experimental: as §1, §2, §3, §4

SW480 cells = experiment: MTT assay, SW480; type: cell-based, human; conditions: 50% growth inhibition
Experimental: as §1, §2, §3, §4

HaCaT cells = experiment: MTT assay, HaCaT normal cells; type: cell-based, human; conditions: 72 h
Experimental: as §1, §2, §3, §4

SW620 cells = experiment: MTT assay, SW620; type: cell-based, human; conditions: 50% growth inhibition
Experimental: as §1, §2, §3, §4

[1] = tested on: SW480, SW620, PC3, K-562 cells; experiment: MTT assay, summary over cancer cell lines; type: cell-based; conditions: Homo sapiens, 72 h, depending on the tumor line, read-out: IC50 (range or bound over cancer cell lines)
Experimental: as §1, §3, §4

| Structure (SMILES) | IC50 (PC3 cells) [µM] | IC50 (K-562 cells; Homo sapiens, K562, 72 h) [µM] | IC50 (SW480 cells; Homo sapiens, SW480, 72 h) [µM] | IC50 (HaCaT cells; Homo sapiens, HaCaT) [µM] | IC50 (SW620 cells; Homo sapiens, SW-620, 72 h) [µM] | IC50 (K-562 cells; 72 h) [µM] | IC50 (SW480 cells; 72 h) [µM] | IC50 (HaCaT cells) [µM] | IC50 (SW620 cells; 72 h) [µM] | melting point [°C] | IC50 [1] [µM] |
| --- | --- | --- | --- | --- | --- | --- | --- | --- | --- | --- | --- |
| COc1cccc2c1C(=O)c1c(O)c3c(c(O)c1C2=O)C[C@@](O)(C(=O)CO)C[C@@H]3O[C@H]1C[C@H](N)[C@H](O)[C@H](C)O1 [Doxorubicin, reference compound] | 0.3 ± 0.12 | 0.2 ± 0.1 | 0.8 ± 0.1 | 0.3 ± 0.11 | 0.3 ± 0.08 |  |  |  |  |  |  |
| N.N.[Cl][Pt][Cl] [Cisplatin, reference compound] |  |  |  |  |  | 8.2 ± 4.08 | 10.4 ± 0.9 | 6.3 ± 0.7 | 6.7 ± 1.1 |  |  |
| Cc1ccc(Cl)cc1NC(=S)Nc1cccc(C(F)(F)F)c1 [Compound 6, 1-(5-chloro-2-methylphenyl)-3-[3-(trifluoromethyl)phenyl]thiourea] | 65.9 ± 10.5 | 40.3 ± 3.88 | 12.7 to 15.6 | 14.5 ± 1.08 | 22.1 ± 4.36 |  | 15.6 ± 4.1 |  |  |  |  |
| Cc1c(Cl)cccc1NC(=S)Nc1cccc(C(F)(F)F)c1 [Compound 5, 1-(3-chloro-2-methylphenyl)-3-[3-(trifluoromethyl)phenyl]thiourea] | 51.8 ± 3.19 | 52.5 ± 2.14 | 7.3 ± 0.89 | 55.6 ± 1.74 | 23.2 ± 4.07 |  |  |  |  | 163 to 165 | ≤ 10 |
| FC(F)(F)c1cccc(NC(=S)Nc2ccccc2C(F)(F)F)c1 [Compound 7, 1-[2-(trifluoromethyl)phenyl]-3-[3-(trifluoromethyl)phenyl]thiourea] | 17.1 ± 0.57 | 76.5 ± 4.57 | > 100 | 65.7 ± 3.83 | 30.1 ± 9.74 |  |  |  |  | 173 to 175 |  |
| N#Cc1ccc(NC(=S)Nc2cccc(C(F)(F)F)c2)cc1 [Compound 10, 1-(4-cyanophenyl)-3-[3-(trifluoromethyl)-phenyl]thiourea] | 66.2 ± 4.47 | 10.2 to 12.9 | 20.6 ± 3.59 | 50.1 ± 4.89 | 18.7 ± 5.92 | 12.9 ± 4.33 |  |  |  |  |  |
| FC(F)(F)c1cccc(NC(=S)Nc2cccc(Cl)c2Cl)c1 [Compound 4, 1-(2,3-dichlorophenyl)-3-[3-(trifluoromethyl)phenyl]thiourea] | 10.5 ± 2.52 | 35.9 ± 0.07 | 22.5 ± 0.1 | 13.9 ± 1.7 | 14 ± 1.73 |  |  |  |  |  | ≤ 10 |
| FC(F)(F)c1cccc(NC(=S)Nc2ccc(Br)cc2)c1 [Compound 11, 1-(4-bromophenyl)-3-[3-(trifluoromethyl)phenyl]thiourea] | 76.6 ± 4.7 | 74.2 ± 6.82 | 41.5 ± 4.46 | 17.2 ± 0.64 | 16.2 ± 4.08 |  |  |  |  |  |  |
| FC(F)(F)c1cccc(NC(=S)NCCc2ccccc2)c1 [Compound 12, 1-(2-phenylethyl)-3-[3-(trifluoromethyl)-phenyl]thiourea] | 26.7 ± 3.95 | 23.8 ± 0.45 | 25.3 ± 8.53 | 55.4 ± 1.08 | 38.2 ± 3.1 |  |  |  |  |  | 23.8 to 38.2 |
